The results in this text go back to patent US20220233708A1, “ANTIBODY-DRUG CONJUGATE, INTERMEDIATE THEREOF, PREPARATION METHOD THEREFOR AND APPLICATION THEREOF” (priority 2019, published 2022).

One data set has as its target cathepsin B (Homo sapiens, UniProt P07858). The experiment in a line: In vitro enzyme cleavage experiment of linker-drug conjugates. The format is in vitro ADME. The following applies: pH 5.0 to pH 7.0. The method, then:
Linker-drug conjugates (LE14 and GGFG-Dxd) and cathepsin B were incubated in three different pH (5.0, 6.0, 7.0) buffers, and samples were taken at different time points into the high performance liquid chromatography-mass spectrometer. The release percentage of the drug was determined by external standard method (with Dxd as the external standard).

The next data set has as its system anti-B7-H3 antibody P2E5. The experiment in a line: Coupling of linker-drug conjugates with P2E5. Format: physicochemical. To be noted: coupling with P2E5, highest DAR (excessive coupling). As for the experimental part:
(§1) The anti-B7-H3 antibody P2E5, anti-Claudin18.2 antibody IMAB362, and anti-HER2 antibody Trastuzumab (concentration was 15 mg/mL) were replaced into 50 mM PB/1.0 mM EDTA buffer (pH 7.0) by a G25 desalting column, respectively. 12 equivalents of TECP was added and the mixture was stirred at 37° C. for 2 hours to fully open the disulfide bonds between the antibody chains. Then phosphoric acid was used to adjust the pH of the reduced antibody solution to 6.0, and the temperature of the water bath was lowered to 25° C. for coupling reaction. […] After the reaction was completed, the sample was filtered with a 0.22 μm membrane. Uncoupled small molecules were purified and removed by a tangential flow ultrafiltration system. The buffer was 50 mM PB/1.0 mM EDTA solution (pH 6.0). After purification, sucrose (final concentration was 6%) was added, and the mixture was stored in a refrigerator at −20° C. The UV method was used to measure the absorbance values at 280 nm and 370 nm respectively, and the DAR value was calculated.

Data set [1] deals with anti-Claudin18.2 antibody IMAB362. The data set is described as follows: Coupling of linker-drug conjugates with IMAB362. Format: physicochemical. To be noted: coupling with IMAB362, highest DAR (excessive coupling). As for the experimental part: as §1
Data set [2] relates to anti-HER2 antibody Trastuzumab. The experiment in a line: Coupling of linker-drug conjugates with Trastuzumab. Format: physicochemical. The following applies: highest DAR (excessive coupling). The method, then:
as §1

The subject of the next data set is other antibodies. The experiment in a line: Coupling of linker-drug conjugates with other / different antibodies. To be noted: coupled with other / different antibodies. The format is physicochemical.
Another data set concerns NCI-N87 cell line. The data set is described as follows: Killing activity on NCI-N87 before and after enzyme cleavage by cathepsin B system. The format is cell-based, human. To be noted: NCI-N87, 144 hours. The text has this: The NCI-N87 cell line was selected as the experimental cell line.

Where two headings read alike, the source gives them in different places. Starred links: 1 amine or outer side, 2 acyl side, 3 side chain; linkers in the order of their positions; H or OH if unused. Non-standard residues stand in square brackets, D forms with d. Residues, ends and D or L forms follow the SMILES beside them. *: point of attachment. Exatecan = CC[C@@]1(O)C(=O)OCc2c1cc1n(c2=O)Cc2c-1nc1cc(F)c(C)c3c1c2[C@@H](N*)CC3; Hexanoyl(6-maleimido) = O=C1C=CC(=O)N1CCCCCC(=O)*; NHCH2OCH2CO = O=C(COCN[*:1])[*:2]

With `CC[C@@]1(O)C(=O)OCc2c1cc1n(c2=O)Cc2c-1nc1cc(F)c(C)c3c1c2[C@@H](NC(=O)COCNC(=O)CNC(=O)[C@H](Cc1ccccc1)NC(=O)CNC(=O)CNC(=O)CCCCCN1C(=O)C=CC1=O)CC3` [GGFG-Dxd, reference compound] ({Hexanoyl(6-maleimido)}-GGFG[NHCH2OCH2CO]-Exatecan), at cathepsin B, the “Enzyme cleavage speed (in words)” value is “slower enzyme cleavage speed”. Further, the Ratio of aggregates in the data set on anti-B7-H3 antibody P2E5 is on record as 20%; in data set [1], 35%; in data set [2], 0.1%. The Whether precipitation entry in the data set on anti-B7-H3 antibody P2E5 is “produced precipitation”; in data set [1] it was “produced precipitation”; in data set [2], “did not produce precipitation and No”. Further, the “Precipitation (in words)” value in the data set with other antibodies was “precipitation would be produced”. In the data set on other antibodies, the “Ratio of aggregates (in words)” value is listed as “high”.

Turning to `CC[C@@]1(O)C(=O)OC(=O)C2=C1C=C1c3nc4cc(F)c(C)c5c4c(c3CN1C2)[C@@H](NC(=O)COCN(CCS(C)(=O)=O)C(=O)OCc1ccc(NC(=O)[C@H](C)NC(=O)[C@@H](NC(=O)CCCCCN2C(=O)C=CC2=O)C(C)C)cc1)CC5` [LE14], the “Enzyme cleavage speed (in words)” value on cathepsin B is on record as “could quickly cleave”. Besides, the results for the Ratio of aggregates (in the data set on anti-B7-H3 antibody P2E5; in data set [1]; in data set [2]) were 1.3%, 2.5% and 0.3%, respectively. Further, the Whether precipitation entry (in the data set with anti-B7-H3 antibody P2E5; in data set [1]; in data set [2]) was “No” throughout.

For the compound `CC[C@@]1(O)C(=O)OCc2c1cc1n(c2=O)Cc2c-1nc1cc(F)c(C)c3c1c2[C@@H](NC(=O)COCNC(=O)CNC(=O)[C@H](Cc1ccccc1)NC(=O)[C@H](CS)NC(=O)[C@@H](NC(=O)CCCCCN1C(=O)C=CC1=O)C(C)C)CC3` [LE24] ({Hexanoyl(6-maleimido)}-VCFG[NHCH2OCH2CO]-Exatecan), the Ratio of aggregates in the data set on anti-B7-H3 antibody P2E5 is given as 1.2%; in data set [1] it was 2.0%; in data set [2], 0.1%. Besides, the Whether precipitation entry (in the data set with anti-B7-H3 antibody P2E5; in data set [1]; in data set [2]) was “No” in each case.

Turning to `CCc1c2c(nc3ccc(O)cc13)-c1cc3c(c(=O)n1C2)COC(=O)[C@]3(O)CC` [SN38, 7-ethyl-10-hydroxycamptothecin], the IC50 is 6.85 nM in the data set on NCI-N87 cell line (after cathepsin B system pH 5.0, 37° C., 4 hours, read-out: IC50 (Based on SN-38 equivalent), After enzyme cleavage) and 6.47 nM with NCI-N87 cell line (before cathepsin B cleavage, read-out: IC50 (Based on SN-38 equivalent), Before enzyme cleavage).

As usually defined, the IC50 is the concentration at which inhibition is half-maximal.
